Experimental data published in patent US20220233661A1, “METHOD OF DETERMINING ELIGIBILITY OF CANCER PATIENT FOR PEPTIDE VACCINE THERAPY” (priority 2019, published 2022).

How the values were obtained:
[1] = test system: anti-peptide IgG in plasma; assay: Test Example 4: peptide-specific IgG titer pre and post vaccination, bead-based multiplexed Luminex assay; type: in vivo, human; details: for Pre-vaccination IgG Negative (number of patients) / Pre-vaccination IgG Positive (number of patients): cut off 10 FIU; for Post vaccination IgG: number of (positive) patients among vaccinated: positive IgG response; for Pre-vaccination IgG Negative patients: number of 2,588 patients below 10 FIU; for Pre-vaccination IgG Positive patients: number of 2,588 patients with ≥10 FIU; for Post vaccination IgG: (positive) patients: number of vaccinated patients with positive IgG response; for Correlation between immune responses and OS: Negative (mOS): patients with negative post-vaccination IgG response to the peptide; for Correlation between immune responses and OS: Positive (mOS): patients with positive post-vaccination IgG response to the peptide
Method in brief: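 Plasma taken before vaccination and at the end of the first and second cycles; incubated with peptide-coupled beads 2 hours at 25° C., then biotinylated anti-human IgG (gamma chain-specific) and streptavidin-PE. Bead FIU read by Luminex; positivity cutoff 10 FIU in 100-fold diluted samples.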

cancer patients = assay: Test Example 4: correlation between vaccination with individual peptides (or peptide sets) and OS, Cox proportional hazards regression; type: in vivo, human; details: for HR: Cox proportional hazards regression, OS; for Correlation between immune responses and OS: Negative (mOS) / Correlation between immune responses and OS: Positive (mOS): Table 20, <64% neutrophil and ≥26% lymphocyte; for Correlation between immune responses and OS: Negative (mOS): vaccinated patients with negative IgG response; for Correlation between immune responses and OS: Positive (mOS): vaccinated patients with positive IgG response
Method in brief: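 Univariate and multivariate Cox proportional hazards regression of each of 31 vaccine peptides against OS (enrollment to death or last contact), giving HR with 95% CI; also run separately in 2,085 advanced (stage IV+recurrence) and 503 stage I-III patients. Two-sided p<0.05 considered significant.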

[2] = Table 20, patients showing both <64% neutrophil and ≥26% lymphocyte
[3] = patients showing detectable levels
[4] = patients showing positive responses
[5] = Table 18, all 2,588 cases, vaccinated vs non-vaccinated
[6] = Table 18, all 2,588 cases, median OS of patients under PPV containing the peptide
[7] = Table 18, all 2,588 cases, median OS of patients under PPV not containing the peptide
[8] = Table 19, 2,085 advanced cancer patients (stage IV+recurrence)
[9] = Table 19, 2,085 advanced cancer patients (stage IV+recurrence), PPV containing the peptide
[10] = Table 19, 2,085 advanced cancer patients (stage IV+recurrence), PPV not containing the peptide
[11] = Table 21, patients showing both <64% neutrophil and ≥26% lymphocyte
[12] = Table 21, patients showing both <64% neutrophil and ≥26% lymphocyte, PPV containing the peptide
[13] = Table 21, patients showing both <64% neutrophil and ≥26% lymphocyte, PPV not containing the peptide
[14] = 2,085 advanced cancer patients (stage IV+recurrence)
[15] = all 2,588 cases, PPV containing the peptide
[16] = all 2,588 cases, PPV not containing the peptide

Sequence	Post vaccination IgG Median (FIU) [1, 2]	Pre-vaccination IgG Median (FIU) [1, 2] [FIU]	Pre-vaccination IgG Negative (number of patients) [1, 2]	Pre-vaccination IgG Positive (number of patients) [1, 2]	Post vaccination IgG: number of (positive) patients among vaccinated [1, 2]	Pre-vaccination IgG Negative patients [1]	Pre-vaccination IgG Positive patients [1]	Post vaccination IgG: (positive) patients [1]	Pre-vaccination IgG Median (FIU) [1, 3] [FIU]	Post vaccination IgG Median (FIU) [1, 4]	Correlation between immune responses and OS: Negative (mOS) [1] [months]	Correlation between immune responses and OS: Positive (mOS) [1] [months]	HR (cancer patients; [5])	Vaccinate cases (mOS) (cancer patients; [6])	Non-vaccinate cases (mOS) (cancer patients; [7])	HR (cancer patients; [8])	Vaccinate cases (mOS) (cancer patients; [9])	Non-vaccinate cases (mOS) (cancer patients; [10])	Correlation between immune responses and OS: Negative (mOS) (cancer patients) [months]	Correlation between immune responses and OS: Positive (mOS) (cancer patients) [months]	further results
GIHKQKEKSR (listed as Homo sapiens) [PAP-248]	1,981 FIU	38	543	523	64(31)	1,302	1,286	147(62)	37	2,136 FIU	9.9	21.1	1.0	147(11.4) M	1,067(11.1) M	0.8	124(10.1) M	845(9.9) M	13	21.3	median OS of patients with the peptide vs patients without it (cancer patients; 1,066 patients with <64% neutrophil and ≥26% lymphocyte): shorter; HR (cancer patients; [11]): 1.1; Vaccinate cases (mOS) (cancer patients; [12]): 64(15.5) M; Non-vaccinate cases (mOS) (cancer patients; [13]): 443(17.6) M
LYCESVHNF (listed as Homo sapiens) [PAP-213]	15,379 FIU	33	489	577	121(94)	1,166	1,422	279(196)	33	14,912 FIU	7.0	21.7	0.9	279(16.6) M	1271(11.4) M	0.8	228(14.9) M	1018(10.0) M	11.3	28.1	median OS of non-vaccinated cases (cancer patients; [14]): 10 months; median OS of vaccinated cases (cancer patients; [14]): 14.9 months; HR (cancer patients; [11]): 0.9; Vaccinate cases (mOS) (cancer patients; [12]): 121(23.7) M; Non-vaccinate cases (mOS) (cancer patients; [13]): 504(17.9) M
AYDFLYNYL (listed as Homo sapiens) [SART2-161]	775 FIU	27	699	367	70(26)	1,641	947	195(61)	29	312 FIU	12.6	20.6	1.0	195(12.3) M	13,552(11.9) M	0.9	156(10.7) M	1090(10.4) M	14.4	26.7	HR (cancer patients; [11]): 1.1; Vaccinate cases (mOS) (cancer patients; [12]): 70(17.4) M; Non-vaccinate cases (mOS) (cancer patients; [13]): 555(18.4) M
WLEYYNLER (listed as Homo sapiens) [SART3-511]	1,095 FIU	38	264	802	179(82)	621	1,967	439(145)	41	921 FIU	10.8	22.6	1.0	439(11.0) M	775(11.2) M	1.0	346(9.9) M	623(10.0) M	17.1	29.2	HR (cancer patients; [11]): 0.9; Vaccinate cases (mOS) (cancer patients; [12]): 179(19.0) M; Non-vaccinate cases (mOS) (cancer patients; [13]): 328(17.5) M
NVLHFFNAPL (listed as Homo sapiens) [HNRPL-501]	12,553 FIU	48	587	479	148(111)	1,399	1,189	355(223)	45	10,405 FIU	6.6	19.3	1.0	355(12.1) M	1,107(11.6) M	1.0	291(10.4) M	897(10.3) M	10.6	28.2	HR (cancer patients; [11]): 0.9; Vaccinate cases (mOS) (cancer patients; [12]): 148(19.6) M; Non-vaccinate cases (mOS) (cancer patients; [13]): 445(17.5) M
DYVREHKDNI (listed as Homo sapiens) [EGFR-800]	746 FIU	32	431	635	176(79)	1,046	1,542	390(156)	30	715 FIU	12.4	24.3	0.8	390(14.3) M	1,160(11.1) M	0.8	299(13.1) M	947(9.6) M	17.1	27.5	median OS of non-vaccinated cases (cancer patients; [14]): 9.6 months; median OS of vaccinated cases (cancer patients; [14]): 13.1 months; HR (cancer patients; [11]): 0.9; Vaccinate cases (mOS) (cancer patients; [12]): 176(21.2) M; Non-vaccinate cases (mOS) (cancer patients; [13]): 449(21.2) M; median OS of vaccinated cases (cancer patients; [15]): 14.3 months; median OS of non-vaccinated cases (cancer patients; [16]): 11.1 months
ALVEFEDVL (listed as Homo sapiens) [HNRPL-140]	7,150 FIU	37	505	561	103(68)	1,293	1,295	200(111)	39	8,576 FIU	9.8	23.9	0.8	200(12.9) M	850(11.1) M	0.8	162(12.1) M	700(10.0) M	10.4	26.2	median OS of non-vaccinated cases (cancer patients; [14]): 10 months; median OS of vaccinated cases (cancer patients; [14]): 12.1 months; HR (cancer patients; [11]): 0.8; Vaccinate cases (mOS) (cancer patients; [12]): 103(19.0) M; Non-vaccinate cases (mOS) (cancer patients; [13]): 331(15.6) M; median OS of vaccinated cases (cancer patients; [15]): 12.9 months; median OS of non-vaccinated cases (cancer patients; [16]): 11.1 months
